Laboratory results reported in patent US20230172204A1 (BASF SE, priority 2020, published 2023).

Assays:
[1] = test system: Phakopsora pachyrhizi (F129L); test: Protective control of soybean rust on soybeans (PHAKPA P2); type: in vivo; conditions: soybean rust F129L; for % PHAKPA (F129L) Disease level P2 at 4 ppm: protective P2, 4 ppm; for % PHAKPA (F129L) Disease level P2 at 16 ppm: protective P2, 16 ppm
[2] = test system: Phakopsora pachyrhizi (F129L); test: Protective control of soybean rust on soybeans (PHAKPA P6); type: in vivo; conditions: soybean rust F129L; for % PHAKPA (F129L) Disease level P6 at 4 ppm: protective P6, 4 ppm; for % PHAKPA (F129L) Disease level P6 at 16 ppm: protective P6, 16 ppm

| SMILES | % PHAKPA (F129L) Disease level P2 at 4 ppm [1] [%] | % PHAKPA (F129L) Disease level P2 at 16 ppm [1] [%] | % PHAKPA (F129L) Disease level P6 at 4 ppm [2] [%] | % PHAKPA (F129L) Disease level P6 at 16 ppm [2] [%] |
| --- | --- | --- | --- | --- |
| C#Cc1ccccc1/C(C)=N/OCc1c(C)cccc1/C(=N\OC)C(=O)OC [compound 122] | 100 | 73 | 93 | 90 |
| CO/N=C(/C(=O)OC)c1cccc(C)c1CO/N=C(\C)c1ccccc1OC [compound 123] | 100 | 82 | 90 | 78 |
| CNC(=O)/C(=N/OC)c1cccc(C)c1CO/N=C(\C)c1ccccc1-c1ccccc1 [compound 124] | 98 | 87 | 92 | 75 |
| C#Cc1ccccc1/C(C)=N/OCc1c(C)cccc1/C(=N\OC)C(=O)NC [compound 125] | 72 | 9 | 90 | 44 |
| CNC(=O)/C(=N/OC)c1cccc(C)c1CO/N=C(\C)c1ccccc1C [compound 127] | 90 | 44 | 93 | 62 |
| CNC(=O)/C(=N/OC)c1cccc(C)c1CO/N=C(\C)c1ccccc1Cl [compound 128] | 32 | 2 | 77 | 2 |
| CO/N=C(/C(=O)OC)c1cccc(C)c1CO/N=C(\C)c1ccc(F)c(F)c1 [compound 129] | 28 | 1 | 24 | 2 |
| CNC(=O)/C(=N/OC)c1cccc(C)c1CO/N=C(\C)c1ccc(F)c(F)c1 [compound 132] | 1 | 0 | 6 | 0 |
| CO/N=C(/C(=O)OC)c1cccc(C)c1CO/N=C(\C)c1ccc(OC(F)(F)F)cc1 [compound 133] | 1 | 0 | 2 | 0 |
| CO/N=C(/C(=O)OC)c1cccc(C)c1CO/N=C(\C)c1cccc(Br)c1F [compound 134] | 37 | 10 | 22 | 7 |
| CO/N=C(/C(=O)OC)c1cccc(C)c1CO/N=C(\C)c1cc(Br)cc(Br)c1 [compound 135] | 15 | 1 | 16 | 2 |
| CNC(=O)/C(=N/OC)c1cccc(C)c1CO/N=C(\C)c1ccc(OC(F)(F)F)cc1 [compound 136] | 1 | 0 | 3 | 2 |
| CO/N=C(/C(=O)OC)c1cccc(C)c1CO/N=C(\C)c1ccc(C)c(C)c1 [compound 137] | 19 | 2 | 50 | 5 |
| CO/N=C(/C(=O)OC)c1cccc(C)c1CO/N=C(\C)c1cc(Br)ccc1F [compound 138] | 47 | 2 | 35 | 1 |
| CNC(=O)/C(=N/OC)c1cccc(C)c1CO/N=C(\C)c1ccc(C)c(C)c1 [compound 139] | 47 | 2 | 72 | 24 |
| CNC(=O)/C(=N/OC)c1cccc(C)c1CO/N=C(\C)c1cc(Br)ccc1F [compound 140] | 8 | 0 | 13 | 4 |
| CNC(=O)/C(=N/OC)c1cccc(C)c1CO/N=C(\C)c1cccc(Br)c1F [compound 141] | 2 | 0 | 2 | 0 |
| CNC(=O)/C(=N/OC)c1cccc(C)c1CO/N=C(\C)c1cc(Br)cc(Br)c1 [compound 142] | 19 | 5 | 26 | 5 |
